Biological target: recombinant human PAI-1 (Homo sapiens, UniProt P05121)
Assay: PAI-1 inhibitory activity, Test Method A (tPA fluorogenic substrate, Tris buffer pH8.0, 37 C)
Format: biochemical
Settings: Test Method A
Procedure: To this solution, 50 μL solution of 400 μM fluogenic substrate for tPA (Pyr-Gly-Arg-MCA, Peptide Institute, Inc.) adjusted with the same buffer was added, and reacted for 30 minutes at 37° C. The reaction was stopped by adding 50 μL of 2% acetic acid. Fluorescence was measured at the excitation wavelength=360 nm, emission wavelength=460 or 465 nm using a microplate reader (SPECTRAFLUOR or GENios) by TECAN. The fluorescence intensities in the presence of the PAI-1 as the control (DMSO) or in the absence of the PAI-1 (tPA alone) were taken as 100% and 0% of PAI-1 activities, respectively, and inhibitory ratios of PAI-1 activities in the presence of the test compound were obtained.
<Composition of the Tris Buffer (pH8.0)>

Sequence of recombinant human PAI-1 (P05121 24-402): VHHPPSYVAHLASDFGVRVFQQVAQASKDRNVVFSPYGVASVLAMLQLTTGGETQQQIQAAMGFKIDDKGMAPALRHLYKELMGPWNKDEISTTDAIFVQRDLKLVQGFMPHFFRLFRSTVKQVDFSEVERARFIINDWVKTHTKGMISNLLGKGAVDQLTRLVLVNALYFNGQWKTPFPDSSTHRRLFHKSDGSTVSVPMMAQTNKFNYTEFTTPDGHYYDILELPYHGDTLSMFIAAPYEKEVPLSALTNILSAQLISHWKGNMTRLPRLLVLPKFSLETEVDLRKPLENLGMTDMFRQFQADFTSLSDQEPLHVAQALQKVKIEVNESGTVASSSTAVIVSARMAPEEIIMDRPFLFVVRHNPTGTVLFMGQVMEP

| SMILES | Inhibitory Ratio at 25 μM (%) (test compound 25 μM) | Inhibitory Ratio at 25 μM (%) (25 μM test compound) |
| --- | --- | --- |
| O=C1C(=Cc2ccc(O)c(O)c2)C(C(F)(F)F)=NN1c1cc(Cl)cc(Cl)c1 [compound 147, 4-(3,4-Dihydroxybenzylidene)-1-(3,5-dichlorophenyl)*3-trifluoromethyl-2-pyrazolin-5-one] | >99 | – |
| O=C(Nc1cccc(OC(F)(F)F)c1)c1cc(C=C2SC(=O)N(Cc3ccc(Cl)c(Cl)c3)C2=O)ccc1O [compound 414] | – | 91 |
| COc1cc(OC)c(OC)cc1C=C1C(=O)N(c2cc(Cl)cc(Cl)c2)N=C1C(C)C [compound 506] | – | 50 |
| O=C(Nc1ccc(Cl)nc1)c1cc(C=C2SC(=O)N(Cc3ccc(C(F)(F)F)cc3)C2=O)ccc1O [compound 392] | – | >99 |
| COc1cc(C=C2SC(=O)N(Cc3ccc(Cl)c(Cl)c3)C2=O)cc(C(=O)Nc2cc(C(F)(F)F)cc(C(F)(F)F)c2)c1O [compound 438] | – | >99 |
| COc1ccc(NC(=O)c2cccc(C=C3SC(=O)N(Cc4ccc(Cl)c(Cl)c4)C3=O)c2)cc1OC [compound 357] | – | 82 |
| CC(C)C1=NN(Cc2ccc(Cl)c(Cl)c2)C(=O)C1=Cc1cc(O)c(O)cc1O.N=C(N)NCCC[C@H](N)C(=O)O.N=C(N)NCCC[C@H](N)C(=O)O.N=C(N)NCCC[C@H](N)C(=O)O [compound 553, tri(L-(+)-arginine) salt of 4-(2,4,5-trihydroxybenzylidene)-1-(3,4-dichlorobenzyl)-3-isopropyl-2-pyrazolin-5-one] | – | >99 |
| O=C1SC(=Cc2cc([N+](=O)[O-])ccc2O)C(=O)N1Cc1ccc(Cl)c(Cl)c1 [compound 55] | 77 | – |
| O=C(Nc1ccc(O)nc1)c1cc(C=C2SC(=O)N(Cc3ccc(Cl)c(Cl)c3)C2=O)ccc1O [compound 408] | – | >99 |
| O=C(Nc1ccc(O)c(O)c1)c1cc(C=C2SC(=O)N(CCc3ccc(Cl)cc3)C2=O)ccc1O [compound 377] | – | 81 |
| CCOC1=NN(c2ccc([N+](=O)[O-])cc2)C(=O)C1=Cc1cc(O)c(O)cc1O [compound 223] | 88 | – |
| Cc1cc(C)cc(CN2C(=O)SC(=Cc3ccc(O)c(C(=O)Nc4ccc(O)c(O)c4)c3)C2=O)c1 [compound 394] | – | >99 |
| Cc1cc(C)cc(CN2C(=O)SC(=Cc3ccc(O)c(O)c3)C2=O)c1 [compound 27] | >99 | – |
| O=C1SC(=Cc2ccc(O)c(O)c2)C(=O)N1Cc1cccc(Oc2ccccc2)c1 [compound 17] | >99 | – |
| O=C(O)c1cc(C=C2SC(=O)N(Cc3ccc(Cl)c(Cl)c3)C2=O)cc(-c2ccccc2)c1O [compound 430] | – | 87 |
| O=C(Nc1cc(C(F)(F)F)ccc1C(F)(F)F)c1cc(C=C2SC(=O)N(Cc3ccc(Cl)c(Cl)c3)C2=O)ccc1O [compound 403] | – | 58 |
| O=C1SC(=Cc2cn(Cc3ccc(OCc4ccccc4)c(OCc4ccccc4)c3)c3ccccc23)C(=O)N1Cc1ccc(Cl)c(Cl)c1 [compound 411, 5-[1-(3,4-dibenzyloxybenzyl)indol-3-ylmethylene]-3-(3,4-dichlorobenzyl)thiazolidine-2,4-dione] | – | 95 |
| COc1ccc(Oc2ccc(C(F)(F)F)cc2NC(=O)c2cc(C=C3SC(=O)N(Cc4cccc(Oc5ccccc5)c4)C3=O)ccc2O)cc1 [compound 421, 5-(4-hydroxy-3-{[2-(4-methoxyphenoxy)-5-(trifluoromethyl)-phenyl]carbamoyl}benzylidene)-3-(3-phenoxybenzyl)thiazolidine-2,4-dione] | – | >99 |
| O=C(Nc1cccc(O)c1)c1cc(C=C2SC(=O)N(Cc3ccc(Cl)c(Cl)c3)C2=O)ccc1O [compound 356] | – | >99 |
| CC1=NN(c2cccc(C(=O)O)c2)C(=O)C1=Cc1ccc(-c2ccc(C)c(Cl)c2)o1 [compound 187] | 54 | – |

Continued, values first:

| Inhibitory Ratio at 25 μM (%) (test compound 25 μM) | Inhibitory Ratio at 25 μM (%) (25 μM test compound) | SMILES |
| --- | --- | --- |
| 29 | – | CCOC1=NN(c2ccc([N+](=O)[O-])cc2)C(=O)C1=Cc1ccc(C(=O)OC)cc1 [compound 214] |
| – | 85 | COC(=O)c1ccc(C(=O)n2cc(C=C3SC(=O)N(Cc4ccc(Cl)c(Cl)c4)C3=O)c3ccccc32)cc1 [compound 427] |
| – | >99 | O=C1SC(=Cc2ccc(O)c(O)c2)C(=O)N1Cc1cc(C(F)(F)F)ccc1C(F)(F)F [compound 305, 5-(3,4-Dihydroxybenzylidene)-3-[2,5-bis(trifluoromethyl)benzyl]-thiazolidine-2,4-dione] |
| >99 | – | O=C1SC(=Cc2ccc(O)cc2O)C(=O)N1Cc1ccc(Cl)c(Cl)c1 [compound 45] |
| >99 | – | CC1=NN(c2cc(Cl)cc(Cl)c2)C(=O)C1=Cc1ccc(O)c(O)c1 [compound 112, 4-(3,4-Dihydroxybenzylidene)-1-(3,5-dichlorophenyl)-3-methyl-2-pyrazolin-5-one] |
| – | 78 | COc1ccc(C=Cc2ccccc2)cc1C=C1C(=O)N(c2ccc([N+](=O)[O-])cc2)N=C1C(C)C [compound 532, 4-(2-Methoxy-5-styrylbenzylidene)-1-(4-nitrophenyl)-3-isopropyl-2-pyrazolin-5-one] |
| – | 94 | CC(C)c1ccc(NC(=O)c2cc(C=C3SC(=O)N(Cc4ccc(Cl)c(Cl)c4)C3=O)ccc2O)c(Br)c1 [compound 472] |
| >99 | – | CCOC1=NN(c2ccc([N+](=O)[O-])cc2)C(=O)C1=Cc1cc(O)c(O)c(O)c1 [compound 132] |
| – | >99 | COc1ccc(NC(=O)c2cc(C=C3SC(=O)N(Cc4ccc(-c5ccccc5)cc4)C3=O)ccc2O)cc1OC [compound 371, 5-[4-Hydroxy-3-(3,4-dimethoxyphenylcarbamoyl)benzylidene]-3-(4-phenylbenzyl)thiazolidine-2,4-dione] |
| >99 | – | O=C1SC(=Cc2cc(O)c(O)c(O)c2)C(=O)N1Cc1cc(Cl)cc(Cl)c1 [compound 54] |
| 82 | – | CC(C)C1=NN(c2cc(Cl)cc(Cl)c2)C(=O)C1=Cc1cccc(C(=O)O)c1 [compound 212] |
| – | >99 | O=C1SC(=Cc2cccc(O)c2O)C(=O)N1Cc1cccc(Nc2ccccc2)c1 [compound 319] |
| – | 84 | O=C(OCc1ccccc1)c1cc(C=C2SC(=O)N(Cc3cc(C(F)(F)F)ccc3C(F)(F)F)C2=O)ccc1O [compound 363, 5-(3-Benzyloxycarbonyl-4-hydroxybenzylidene)-3-[2,5-bis(trifluoromethyl)benzyl]thiazolidine-2,4-dione] |
| 29 | – | O=C1C(=Cc2ccc(-c3cc([N+](=O)[O-])ccc3O)o2)C(O)=NN1c1cccc(Cl)c1 [compound 165] |
| – | >99 | O=C(Nc1cc(Cl)ccc1C(=O)O)c1cc(C=C2SC(=O)N(Cc3ccc(Cl)c(Cl)c3)C2=O)ccc1O [compound 458] |
| – | 57 | O=C(Nc1cccc2c1OC(F)(F)O2)c1cc(C=C2SC(=O)N(Cc3ccc(Cl)c(Cl)c3)C2=O)ccc1O [compound 460] |
| >99 | – | O=C1C(=Cc2ccc(O)c(O)c2)C(c2ccccc2)=NN1c1cc(Cl)cc(Cl)c1 [compound 129, 4-(3,4-Dihydroxybenzylidene)-1-(3,5-dichlorophenyl)-3-phenyl-2-pyrazolin-5-one] |
| – | >99 | COc1cccc(NC(=O)c2cc(C=C3SC(=O)N(Cc4ccc(Cl)c(Cl)c4)C3=O)ccc2O)c1 [compound 355, 5-[4-hydroxy-3-(3-methoxyphenylcarbamoyl)benzylidene]-3-(3,4-dichlorobenzyl)thiazolidine-2,4-dione] |
| – | 61 | COc1cc(C=C2SC(=O)N(Cc3ccc(Cl)c(Cl)c3)C2=O)ccc1Cl [compound 327, 5-(3-methoxy-4-chlorobenzylidene)-3-(3,4-dichlorobenzyl)-thiazolidine-2,4-dione] |
| >99 | – | O=C1SC(=Cc2cccc(O)c2O)C(=O)N1Cc1cccc(Br)c1 [compound 34, 5-(2,3-Dihydroxybenzylidene)-3-(3-bromobenzyl)thiazolidine-2,4-dione] |
| 68 | – | CC1=NN(c2cccc(C(F)(F)F)c2)C(=O)C1=Cc1ccc(O)c(O)c1 [compound 113] |
| – | 87 | COc1ccc(C)c(NC(=O)c2cc(C=C3SC(=O)N(Cc4ccc(Cl)c(Cl)c4)C3=O)ccc2O)c1 [compound 450, 5-[4-hydroxy-3-(2-methyl-5-methoxyphenylcarbamoyl)-benzylidene]-3-(3,4-dichlorobenzyl)thiazolidine-2,4-dione] |
| – | >99 | COc1cc(NC(=O)c2cc(C=C3SC(=O)N(Cc4ccc(Cl)c(Cl)c4)C3=O)ccc2O)cc(OC)c1OC [compound 433, 5-[4-hydroxy-3-(3,4,5-trimethoxyphenylcarbamoyl)benzylidene]-3-(3,4-dichlorobenzyl)thiazolidine-2,4-dione] |
| 46 | – | Cc1cccc(C=C2SC(=O)N(Cc3cc(C(F)(F)F)cc(C(F)(F)F)c3)C2=O)c1O [compound 6] |
| – | >99 | COc1ccc(NC(=O)c2cc(C=C3SC(=O)N(Cc4cc(C)cc(C)c4)C3=O)ccc2O)cc1OC [compound 393, 5-[4-Hydroxy-3-(3,4-dimethoxyphenylcarbamoyl)benzylidene]-3-(3,5-dimethylbenzyl)thiazolidine-2,4-dione] |
| – | 89 | O=C1SC(=Cc2cc(C=Cc3ccccc3)ccc2O)C(=O)N1Cc1ccc(Cl)c(Cl)c1 [compound 322, 5-(2-Hydroxy-5-styrylbenzylidene)-3-(3,4-dichlorobenzyl)thiazolidine-2,4-dione] |
| >99 | – | COc1cc(C=C2C(=O)N(c3ccc(Cl)c(C(=O)O)c3)N=C2C)ccc1OCc1ccccc1 [compound 170] |

— US20070276011A1, “Plasminogen Activator Inhibitor-1 Inhibitor” (priority 2003, published 2007)
